Positions of bridges follow the written chain, without caps; N, C: chain ends. Non-standard residues stand in square brackets, D forms with d. R8 = C=CCCCCCC[C@@](C)(N)C(=O)O; S5 = C=CCCC[C@](C)(N)C(=O)O
Test system: human primary adipocytes
Test: In vitro 2-deoxy-D-glucose-6-phosphate (DG6P) uptake in human primary adipocytes
Format: cell-based
Experimental: Human white visceral preadipocytes (Catalog #: C-12732; PromoCell) were purchased. The preadipocytes were seeded according to manufacturer's protocol and cultured in the Preadipocyte growth medium (Catalog #: C-27410; PromoCell) to confluence. Once confluence was reached, adipogenic differentiation was triggered through medium change to get mature human adipocytes. For the culture without insulin, Adipocyte Basal Medium (Catalog #: C-2431; PromoCell) without insulin was complemented with 5 g/L of […], 8 μg/mL d-Biotin, 400 ng/mL Dexamethasone (following manufacturer's procedure). Native peptides and their stapled counterparts as well as the scrambled peptides (corresponding to the same set of amino acids but rearranged randomly) were purchased from Eurogentec. Each peptide was diluted in saline and used at a dose of 2.5 ng per 10 cm square of cell culture surface area for in vitro studies or 2.5 ng of each peptide (A and B) was injected per mouse.
Mature adipocytes were cultured in 96 well plate. The adipocytes received the different peptides at the indicated concentration above. 24 hours later, the glucose absorption capacity if the treated cells were assessed using the Glucose Uptake Colorimetric Assay kit from Bio Vision (Catalog #: K676-100).
In vivo assessment of the effect of stapled peptides A and B injection in the adipose tissue of diet-induced diabetic WT mice. Mice were fed with a defined high fat/high glucose diet until they became intolerant to glucose (FIG. 5A, Prior Injection). Once the mice were glucose intolerant, these mice received an injection with a combination of the stapled peptides A and B directly in the subcutaneous fat and GTT was again performed a week later as depicted in FIG. 5B. […] FIG. 5C depicts pictures of the adipose tissue which received a combination of the stapled peptides A and B labelled with FAM (green dots indicated with the white arrows). […] A variety of modified stapled peptides were designed to test the effect of modifying the peptide sequence on insulin-independent glucose uptake into adipocytes. Peptides were obtained from CPC Scientific. Additional in vitro 2-deoxy-D-glucose-6-phosphate (DG6P) uptake results in human primary adipocytes for individual peptides of the present technology are provided in Tables 1-3.

[1] = Table 2 dose response, 0.001 μM

+Insulin: insulin-treated adipocytes, positive control of the DG6P uptake assay [reference compound]
2-DG6P (Table 1, +Insulin control): 94.2 pmol | 2-DG6P compared to -Insulin (%) (Table 1, +Insulin control): 312.6% | 2-DG6P (Table 2, +Ins control): 79.3 pmol | 2-DG6P compared to -Insulin (%) (Table 2, +Ins control): 363.3% | 2-DG6P (Table 3, +Insulin control): 87.9 pmol | 2-DG6P compared to -Insulin (%) (Table 3, +Insulin control): 639.6%

H-LPHET-R8-RLSQKV-S5-TKLDCLMFVEPA-OH [AT004] (H-LPHET[R8]RLSQKV[S5]TKLDCLMFVEPA-OH; staple 6-13; SMILES CSCC[C@H](NC(=O)[C@H](CC(C)C)NC(=O)[C@H](CS)NC(=O)[C@H](CC(=O)O)NC(=O)[C@H](CC(C)C)NC(=O)[C@H](CCCCN)NC(=O)[C@@H](NC(=O)[C@]1(C)CCCC=CCCCCCC[C@@](C)(NC(=O)[C@@H](NC(=O)[C@H](CCC(=O)O)NC(=O)[C@H](Cc2c[nH]cn2)NC(=O)[C@@H]2CCCN2C(=O)[C@@H](N)CC(C)C)[C@@H](C)O)C(=O)N[C@@H](CCCNC(=N)N)C(=O)N[C@@H](CC(C)C)C(=O)N[C@@H](CO)C(=O)N[C@@H](CCC(N)=O)C(=O)N[C@@H](CCCCN)C(=O)N[C@@H](C(C)C)C(=O)N1)[C@@H](C)O)C(=O)N[C@@H](Cc1ccccc1)C(=O)N[C@H](C(=O)N[C@@H](CCC(=O)O)C(=O)N1CCC[C@H]1C(=O)N[C@@H](C)C(=O)O)C(C)C) [reference compound]
2-DG6P (Table 1, peptides at 50 μM): 29.5 pmol | 2-DG6P compared to -Insulin (%) (Table 1, peptides at 50 μM): 98.0%

H-LPHET-R8-RLSQKV-S5-TKLDCLMFVEPA-OH [AT005] (H-LPHET[R8]RLSQKV[S5]TKLDCLMFVEPA-OH; staple 6-13; SMILES CSCC[C@H](NC(=O)[C@H](CC(C)C)NC(=O)[C@H](CS)NC(=O)[C@H](CC(=O)O)NC(=O)[C@H](CC(C)C)NC(=O)[C@H](CCCCN)NC(=O)[C@@H](NC(=O)[C@]1(C)CCCC=CCCCCCC[C@@](C)(NC(=O)[C@@H](NC(=O)[C@H](CCC(=O)O)NC(=O)[C@H](Cc2c[nH]cn2)NC(=O)[C@@H]2CCCN2C(=O)[C@@H](N)CC(C)C)[C@@H](C)O)C(=O)N[C@@H](CCCNC(=N)N)C(=O)N[C@@H](CC(C)C)C(=O)N[C@@H](CO)C(=O)N[C@@H](CCC(N)=O)C(=O)N[C@@H](CCCCN)C(=O)N[C@@H](C(C)C)C(=O)N1)[C@@H](C)O)C(=O)N[C@@H](Cc1ccccc1)C(=O)N[C@H](C(=O)N[C@@H](CCC(=O)O)C(=O)N1CCC[C@H]1C(=O)N[C@@H](C)C(=O)O)C(C)C) [reference compound]
2-DG6P (Table 1, peptides at 50 μM): 27.7 pmol | 2-DG6P compared to -Insulin (%) (Table 1, peptides at 50 μM): 92.0%

H-LPHET-R8-RLSQKV-S5-TKLDCLMFVEPA-OH [AT006] (H-LPHET[R8]RLSQKV[S5]TKLDCLMFVEPA-OH; staple 6-13; SMILES CSCC[C@H](NC(=O)[C@H](CC(C)C)NC(=O)[C@H](CS)NC(=O)[C@H](CC(=O)O)NC(=O)[C@H](CC(C)C)NC(=O)[C@H](CCCCN)NC(=O)[C@@H](NC(=O)[C@]1(C)CCCC=CCCCCCC[C@@](C)(NC(=O)[C@@H](NC(=O)[C@H](CCC(=O)O)NC(=O)[C@H](Cc2c[nH]cn2)NC(=O)[C@@H]2CCCN2C(=O)[C@@H](N)CC(C)C)[C@@H](C)O)C(=O)N[C@@H](CCCNC(=N)N)C(=O)N[C@@H](CC(C)C)C(=O)N[C@@H](CO)C(=O)N[C@@H](CCC(N)=O)C(=O)N[C@@H](CCCCN)C(=O)N[C@@H](C(C)C)C(=O)N1)[C@@H](C)O)C(=O)N[C@@H](Cc1ccccc1)C(=O)N[C@H](C(=O)N[C@@H](CCC(=O)O)C(=O)N1CCC[C@H]1C(=O)N[C@@H](C)C(=O)O)C(C)C) [reference compound]
2-DG6P (Table 1, peptides at 50 μM): 30.7 pmol | 2-DG6P compared to -Insulin (%) (Table 1, peptides at 50 μM): 102.0%

H-VE(AAB)TM-R8-EKRVLA-S5-LDKPPFLTQLHS-OH [AT017]
2-DG6P (Table 1, peptides at 50 μM): 55.4 pmol | 2-DG6P compared to -Insulin (%) (Table 1, peptides at 50 μM): 184.0%

H-VECT(AAH)-R8-EKRVLA-S5-LDKPPFLTQLHS-OH [AT018]
2-DG6P (Table 1, peptides at 50 μM): 28.2 pmol | 2-DG6P compared to -Insulin (%) (Table 1, peptides at 50 μM): 93.5%

H-VECTM-R8-EKRVLA-S5-LD-OH (H-VECTM[R8]EKRVLA[S5]LD-OH; staple 6-13; SMILES CSCC[C@H](NC(=O)[C@@H](NC(=O)[C@H](CS)NC(=O)[C@H](CCC(=O)O)NC(=O)[C@@H](N)C(C)C)[C@@H](C)O)C(=O)N[C@]1(C)CCCCCCC=CCCC[C@@](C)(C(=O)N[C@@H](CC(C)C)C(=O)N[C@@H](CC(=O)O)C(=O)O)NC(=O)[C@H](C)NC(=O)[C@H](CC(C)C)NC(=O)[C@H](C(C)C)NC(=O)[C@H](CCCNC(=N)N)NC(=O)[C@H](CCCCN)NC(=O)[C@H](CCC(=O)O)NC1=O) [AT016]
2-DG6P (Table 1, peptides at 50 μM): 51.5 pmol | 2-DG6P compared to -Insulin (%) (Table 1, peptides at 50 μM): 170.9% | 2-DG6P (Table 3 dose response, 1 μM): 23.7 pmol | 2-DG6P compared to -Insulin (%) (Table 3 dose response, 1 μM): 172.4% | 2-DG6P (Table 3 dose response, 10 μM): 38.6 pmol | 2-DG6P compared to -Insulin (%) (Table 3 dose response, 10 μM): 280.6% | 2-DG6P (Table 3 dose response, 100 μM): 51.4 pmol | 2-DG6P compared to -Insulin (%) (Table 3 dose response, 100 μM): 373.7%

H-VECTM-R8-EKRVLA-S5-LDKP-OH (H-VECTM[R8]EKRVLA[S5]LDKP-OH; staple 6-13; SMILES CSCC[C@H](NC(=O)[C@@H](NC(=O)[C@H](CS)NC(=O)[C@H](CCC(=O)O)NC(=O)[C@@H](N)C(C)C)[C@@H](C)O)C(=O)N[C@]1(C)CCCCCCC=CCCC[C@@](C)(C(=O)N[C@@H](CC(C)C)C(=O)N[C@@H](CC(=O)O)C(=O)N[C@@H](CCCCN)C(=O)N2CCC[C@H]2C(=O)O)NC(=O)[C@H](C)NC(=O)[C@H](CC(C)C)NC(=O)[C@H](C(C)C)NC(=O)[C@H](CCCNC(=N)N)NC(=O)[C@H](CCCCN)NC(=O)[C@H](CCC(=O)O)NC1=O) [AT015]
2-DG6P (Table 1, peptides at 50 μM): 35.7 pmol | 2-DG6P compared to -Insulin (%) (Table 1, peptides at 50 μM): 118.6% | 2-DG6P (Table 3 dose response, 1 μM): 16.6 pmol | 2-DG6P compared to -Insulin (%) (Table 3 dose response, 1 μM): 121.0% | 2-DG6P (Table 3 dose response, 10 μM): 28.9 pmol | 2-DG6P compared to -Insulin (%) (Table 3 dose response, 10 μM): 210.6% | 2-DG6P (Table 3 dose response, 100 μM): 39.2 pmol | 2-DG6P compared to -Insulin (%) (Table 3 dose response, 100 μM): 284.9%

H-VECTM-R8-EKRVLA-S5-LDKPPF-OH (H-VECTM[R8]EKRVLA[S5]LDKPPF-OH; staple 6-13; SMILES CSCC[C@H](NC(=O)[C@@H](NC(=O)[C@H](CS)NC(=O)[C@H](CCC(=O)O)NC(=O)[C@@H](N)C(C)C)[C@@H](C)O)C(=O)N[C@]1(C)CCCCCCC=CCCC[C@@](C)(C(=O)N[C@@H](CC(C)C)C(=O)N[C@@H](CC(=O)O)C(=O)N[C@@H](CCCCN)C(=O)N2CCC[C@H]2C(=O)N2CCC[C@H]2C(=O)N[C@@H](Cc2ccccc2)C(=O)O)NC(=O)[C@H](C)NC(=O)[C@H](CC(C)C)NC(=O)[C@H](C(C)C)NC(=O)[C@H](CCCNC(=N)N)NC(=O)[C@H](CCCCN)NC(=O)[C@H](CCC(=O)O)NC1=O) [AT014]
2-DG6P (Table 1, peptides at 50 μM): 58.8 pmol | 2-DG6P compared to -Insulin (%) (Table 1, peptides at 50 μM): 195.1%

H-VECTM-R8-EKRVLA-S5-LDKPPFLTQLHS-NH2 [AT003]
2-DG6P (Table 1, peptides at 50 μM): 46.2 pmol | 2-DG6P compared to -Insulin (%) (Table 1, peptides at 50 μM): 153.3%

H-VECTM-R8-EKRVLA-S5-LDKPPFLTQLHS-OH [AT001]
2-DG6P (Table 1, peptides at 50 μM): 44.2 pmol | 2-DG6P compared to -Insulin (%) (Table 1, peptides at 50 μM): 146.8% | 2-DG6P [1]: 19.9 pmol | 2-DG6P compared to -Insulin (%) [1]: 91.2% | 2-DG6P (Table 2 dose response, 0.01 μM): 21.3 pmol | 2-DG6P compared to -Insulin (%) (Table 2 dose response, 0.01 μM): 97.5% | 2-DG6P (Table 2 dose response, 0.1 μM): 22.3 pmol | 2-DG6P compared to -Insulin (%) (Table 2 dose response, 0.1 μM): 102.0% | 2-DG6P (Table 2 dose response, 1 μM): 23.9 pmol | 2-DG6P compared to -Insulin (%) (Table 2 dose response, 1 μM): 109.6% | 2-DG6P (Table 2 dose response, 10 μM): 31.7 pmol | 2-DG6P compared to -Insulin (%) (Table 2 dose response, 10 μM): 145.2% | 2-DG6P (Table 2 dose response, 100 μM): 47.2 pmol | 2-DG6P compared to -Insulin (%) (Table 2 dose response, 100 μM): 216.1%

H-VECTM-R8-EKRVLA-S5-LDKPPFLTQLHS-OH [AT007]
2-DG6P (Table 1, peptides at 50 μM): 57.7 pmol | 2-DG6P compared to -Insulin (%) (Table 1, peptides at 50 μM): 191.5% | 2-DG6P (Table 2 dose response, 0.1 μM): 23.2 pmol | 2-DG6P compared to -Insulin (%) (Table 2 dose response, 0.1 μM): 106.5% | 2-DG6P (Table 2 dose response, 1 μM): 24.0 pmol | 2-DG6P compared to -Insulin (%) (Table 2 dose response, 1 μM): 110.1% | 2-DG6P (Table 2 dose response, 10 μM): 36.0 pmol | 2-DG6P compared to -Insulin (%) (Table 2 dose response, 10 μM): 165.0% | 2-DG6P (Table 2 dose response, 100 μM): 55.5 pmol | 2-DG6P compared to -Insulin (%) (Table 2 dose response, 100 μM): 254.3%

H-VECTM-R8-EKRVLA-S5-LDKPPFLTQLHS-OH [AT021]
2-DG6P (Table 1, peptides at 50 μM): 37.5 pmol | 2-DG6P compared to -Insulin (%) (Table 1, peptides at 50 μM): 124.6%

H-VECTM-S5-EKR-S5-LALLDKPPFLTQLHS-OH [AT008]
2-DG6P (Table 1, peptides at 50 μM): 53.3 pmol | 2-DG6P compared to -Insulin (%) (Table 1, peptides at 50 μM): 177.0%
